Experimental data published in patent publication US11198699B2 (ALIGOS THERAPEUTICS, INC., priority 2019, dated 2021).
pEC50, pIC50: −log10 of the molar value.

What was measured:
[1] = target: PRMT5/MEP50 (Homo sapiens (Human), UniProt O14744); assay: PRMT5/MEP50 enzyme inhibition assay, Assay 2 (384-well, MALDI mass spectrometry, histone H4 1-21 peptide); format: biochemical; conditions: 1 μM SAM, 0.1 μM histone H4 1-21 peptide, 18-hour incubation at rt
Method: Compounds were tested for inhibition of methyltransferase activity in 384-well plate assay format using mass spectrometry technology. In this enzyme inhibition assay, compounds were tested in a 11-dose IC50 mode with 3-serial dilution, in duplicate, starting at 1, 10, or 100 μM. Reactions were carried out at 1 μM SAM and 0.1 μM histone H4 1-21 peptide as substrates for methyl transfer. Following an 18-hour incubation at rt, the reaction was stopped with 0.5% formic acid. Products of the reaction were captured while unreacted substrates were washed away, prior to MALDI mass spectrometry detection and analysis. Percent enzyme activity was calculated based on no inhibitor DMSO control as 100% activity. EC50 values were determined in GraphPad Prism 8 using the [inhibitor] vs. response—Variable slope (four parameters) function.
Compounds of Formula (I) show activity in this assay. A value of ‘A’ in the table below indicates an IC50 of <1 nM, a value of ‘B’ indicates an IC50≥1 nM to ≤100 nM, and a value of ‘C’ indicates an IC50 value of >100 nM.

[2] = tested on: HepG2 hepatoma cells; assay: Cell proliferation assay, HepG2 (CellTiter-Glo, 7 days); format: cell-based; conditions: HepG2, 7 days, CellTiter-Glo 2.0
Method: (§1) HepG2 hepatoma cells (ATCC, HB-8065) were maintained in DMEM with high glucose (Lonza, 12-914F) supplemented with 10% fetal bovine serum (FBS; Biowest, S181B-500) and 2 mM L-glutamine (Biowest, X0551-100) at 37° C. and 5% CO2. A549 lung carcinoma cells (ATCC, CCL-185) were maintained in F-12K medium (ThermoFisher 21127030) supplemented with 10% FBS at 37° C. and 5% CO2. Exponentially growing HepG2 or A549 were plated in white, clear-bottom 96-well plates (Corning, 3903) at a cell density of 2000 (HepG2) or 350 (A549) cells per well in 199 μL of HepG2 medium. Next, 1 μL of a 5-fold 9-point dilution series of test compound in DMSO was added to the different wells. Cells were incubated at 37° C. 5% CO2 for 7 days. Cell viability was assessed on day 7 with the CellTiter-Glo 2.0 Cell Viability assay kit (Promega, G9243) to quantify the intracellular amounts of ATP: first, 100 μL of cell culture medium was removed from each well, next 100 μL of CellTiter-Glo® 2.0 Reagent was added and plates were shaken for 2 minutes on an orbital shaker. After 10 minutes stabilization at room temperature, read-out was performed on a ThermoFisher VarioSkan Lux plate reader. Counts were normalized to DMSO control (0% inhibition) and the cytotoxic control (100% inhibition) and EC50 values were determined in GraphPad Prism 8 using the [Agonist] vs. response—Variable slope (four parameters) function.
(§2) As shown by the data of Table 2, compounds of Formula (I) have activity in this assay. A value of ‘A’ in the table below indicates an EC50 of <20 nM, a value of ‘B’ indicates an EC50≥20 nM to <100 nM, a value of ‘C’ indicates an EC50 value of EC50≥100 nM to <1000 nM and a value of ‘D’ indicates an EC50≥1000 nM

[3] = tested on: A549 lung carcinoma cells; assay: Cell proliferation assay, A549 (CellTiter-Glo, 7 days); format: cell-based; conditions: A549, 7 days, CellTiter-Glo 2.0
Method: as §1, §2

PRMT5/MEP50, sequence (O14744 whole entry): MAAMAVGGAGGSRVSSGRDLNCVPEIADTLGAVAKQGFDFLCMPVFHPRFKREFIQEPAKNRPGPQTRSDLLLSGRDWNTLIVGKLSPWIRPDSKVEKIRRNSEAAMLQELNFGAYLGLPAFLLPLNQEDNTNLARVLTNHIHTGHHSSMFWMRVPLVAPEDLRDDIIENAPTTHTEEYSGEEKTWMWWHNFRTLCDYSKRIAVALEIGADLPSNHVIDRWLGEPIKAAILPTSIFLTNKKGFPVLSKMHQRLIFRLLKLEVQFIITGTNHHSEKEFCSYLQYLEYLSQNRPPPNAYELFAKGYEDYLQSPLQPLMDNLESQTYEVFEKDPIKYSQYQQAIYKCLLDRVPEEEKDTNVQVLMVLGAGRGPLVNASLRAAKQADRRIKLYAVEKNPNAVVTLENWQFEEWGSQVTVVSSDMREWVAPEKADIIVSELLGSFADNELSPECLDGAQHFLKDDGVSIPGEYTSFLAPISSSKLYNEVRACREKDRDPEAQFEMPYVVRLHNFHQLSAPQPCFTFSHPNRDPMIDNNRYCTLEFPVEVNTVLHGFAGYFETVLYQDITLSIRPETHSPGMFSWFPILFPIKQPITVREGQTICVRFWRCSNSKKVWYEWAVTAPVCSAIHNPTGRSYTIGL
PRMT5/MEP50, sequence (Q9BQA1 whole entry partner): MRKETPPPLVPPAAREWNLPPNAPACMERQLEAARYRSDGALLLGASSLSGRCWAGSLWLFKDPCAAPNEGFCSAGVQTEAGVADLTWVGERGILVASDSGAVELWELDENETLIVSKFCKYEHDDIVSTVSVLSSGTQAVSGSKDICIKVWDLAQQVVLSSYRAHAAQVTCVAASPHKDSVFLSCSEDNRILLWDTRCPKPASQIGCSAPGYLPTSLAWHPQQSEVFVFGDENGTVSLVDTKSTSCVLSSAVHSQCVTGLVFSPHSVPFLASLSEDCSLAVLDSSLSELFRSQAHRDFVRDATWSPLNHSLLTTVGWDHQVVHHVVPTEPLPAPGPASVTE

Row | pIC50 [1] | pEC50 ([2]; Homo sapiens, 168 h) | pEC50 ([3]; Homo sapiens, A549, 168 h) | pEC50 [2] | pEC50 [3] | SMILES
1 | > 9.00 | 6.00 to 7.00 | 7.00 to 7.70 |  |  | N#C[C@]1(CCc2cc(F)c3cc(Cl)c(N)nc3c2)C[C@@H](n2ccc3c(N)ncnc32)[C@H](O)[C@@H]1O [Compound 44, (1S,2R,3S,4R)-1-(2-(2-amino-3-chloro-5-fluoroquinolin-7-yl)ethyl)-4-(4-amino-7H-pyrrolo[2,3-d]pyrimidin-7-yl)-2,3-dihydroxycyclopentane-1-carbonitrile]
2 | > 9.00 | 6.00 to 7.00 | ≤ 6.00 |  |  | C[C@]1(CCc2ccc3cc4c(nc3c2)NC(=O)CO4)C[C@@H](n2ccc3c(N)ncnc32)[C@H](O)[C@@H]1O [Compound 31, 7-(2-((1S,2R,3S,4R)-4-(4-amino-7H-pyrrolo[2,3-d]pyrimidin-7-yl)-2,3-dihydroxy-1-methylcyclopentyl)ethyl)-2H-[1,4]oxazino[3,2-b]quinolin-3(4H)-one]
3 | > 9.00 | > 7.70 | > 7.70 |  |  | C=C[C@]1(CCc2cc(F)c3cc(Cl)c(N)nc3c2)C[C@@H](n2ccc3c(N)ncnc32)[C@H](O)[C@@H]1O [Compound 51]
4 | > 9.00 | > 7.70 | > 7.70 |  |  | C[C@]1(CCc2cc(F)c3cc(Cl)c(N)nc3c2)C[C@@H](n2ccc3c(N)ncnc32)[C@H](O)[C@@H]1O [Compound 30, (1S,2R,3S,5R)-3-(2-(2-amino-3-chloro-5-fluoroquinolin-7-yl)ethyl)-5-(4-amino-7H-pyrrolo[2,3-d]pyrimidin-7-yl)-3-methylcyclopentane-1,2-diol]
5 | > 9.00 | > 7.70 | > 7.70 |  |  | C[C@]1(CCc2ccc3ccc(N)nc3c2)C[C@@H](n2ccc3c(N)ncc(F)c32)[C@H](O)[C@@H]1O [Compound 21, (1S,2R,3S,5R)-5-(4-amino-7-fluoro-pyrrolo[3,2-c]pyridin-1-yl)-3-[2-(2-amino-7-quinolyl)ethyl]-3-methyl-cyclopentane-1,2-diol]
6 | > 9.00 | > 7.70 | > 7.70 |  |  | Nc1nc2cc(CC[C@@]34C[C@@H]3[C@@H](n3ccc5c(N)ncnc53)[C@H](O)[C@@H]4O)ccc2cc1Cl [Compound 19, (1R,2R,3S,4R,5S)-1-[2-(2-amino-3-chloro-7-quinolyl)ethyl]-4-(4-aminopyrrolo[2,3-d]pyrimidin-7-yl)bicyclo[3.1.0]hexane-2,3-diol]
7 | > 9.00 |  |  | ≤ 6.00 | ≤ 6.00 | Cc1cnc2cc(OC[C@@]34C[C@@H]3[C@@H](n3ccc5c(N)ncnc53)[C@H](O)[C@@H]4O)ccn12 [Compound 16]
8 | > 9.00 | 6.00 to 7.00 | 6.00 to 7.00 |  |  | Nc1nc2cc(OC[C@@]34C[C@@H]3[C@@H](n3ccc5c(N)ncnc53)[C@H](O)[C@@H]4O)ccc2cc1Br [Compound 15, (1R,2R,3S,4R,5S)-1-[(2-amino-3-bromo-7-quinolyl)oxymethyl]-4-(4-aminopyrrolo[2,3-d]pyrimidin-7-yl)bicyclo[3.1.0]hexane-2,3-diol]
9 | 7.00 to 9.00 | ≤ 6.00 | ≤ 6.00 |  |  | C[C@]1(CCc2ccc3nc(N)ccc3c2)C[C@@H](n2ccc3c(N)ncc(F)c32)[C@H](O)[C@@H]1O [Compound 21-A]
10 | > 9.00 | > 7.70 | > 7.70 |  |  | C[C@]1(CCc2cc3nc(N)ccc3c(F)c2F)C[C@@H](n2ccc3c(N)ncnc32)[C@H](O)[C@@H]1O [Compound 41, (1S,2R,3S,5R)-3-(2-(2-amino-5,6-difluoroquinolin-7-yl)ethyl)-5-(4-amino-7H-pyrrolo[2,3-d]pyrimidin-7-yl)-3-methylcyclopentane-1,2-diol]
11 | > 9.00 | 6.00 to 7.00 | 6.00 to 7.00 |  |  | NC(=O)[C@]1(CCc2cc(F)c3cc(Cl)c(N)nc3c2)C[C@@H](n2ccc3c(N)ncnc32)[C@H](O)[C@@H]1O [Compound 45, (1R,2R,3S,4R)-1-(2-(2-amino-3-chloro-5-fluoroquinolin-7-yl)ethyl)-4-(4-amino-7H-pyrrolo[2,3-d]pyrimidin-7-yl)-2,3-dihydroxycyclopentane-1-carboxamide]
12 | < 7.00 | ≤ 6.00 | ≤ 6.00 |  |  | Nc1nc2cc(OC[C@@H]3[C@@H](O)[C@@H](O)C4(n5ccc6c(N)ncnc65)C[C@@H]34)ccc2cc1Br (mixture of isomers) [Compound 17, rac-(2S,3R,4R,5S)-4-[(2-amino-3-bromo-7-quinolyl)oxymethyl]-1-(4-aminopyrrolo[2,3-d]pyrimidin-7-yl)bicyclo[3.1.0]hexane-2,3-diol]
13 | > 9.00 | > 7.70 | > 7.70 |  |  | Nc1nc2cc(CC[C@@]3(F)C[C@@H](n4ccc5c(N)ncnc54)[C@H](O)[C@@H]3O)cc(F)c2cc1Cl [Compound 36, (1S,2S,3R,5R)-3-(2-(2-amino-3-chloro-5-fluoroquinolin-7-yl)ethyl)-5-(4-amino-7H-pyrrolo[2,3-d]pyrimidin-7-yl)-3-fluorocyclopentane-1,2-diol]
14 | > 9.00 | > 7.70 | > 7.70 |  |  | C[C@]1(CCc2ccc3ccc(N)nc3c2)C[C@@H](n2ccc3c(N)nccc32)[C@H](O)[C@@H]1O [Compound 38, (1S,2R,3S,5R)-5-(4-amino-1H-pyrrolo[3,2-c]pyridin-1-yl)-3-(2-(2-aminoquinolin-7-yl)ethyl)-3-methylcyclopentane-1,2-diol]
15 | > 9.00 |  |  | 7.00 to 7.70 | 6.00 to 7.00 | C[C@]1(CCc2ccc3cc(Cl)c(N)nc3c2)C[C@@H](n2ccc3c(N)ncnc32)[C@H](O)[C@]1(C)O [Compound 28]
16 | > 9.00 | > 7.70 | > 7.70 |  |  | C[C@]1(CCc2cc(F)c3ccc(N)nc3c2)C[C@@H](n2ccc3c(N)ncnc32)[C@H](O)[C@@H]1O [Compound 37, (1S,2R,3S,5R)-3-(2-(2-amino-5-fluoroquinolin-7-yl)ethyl)-5-(4-amino-7H-pyrrolo[2,3-d]pyrimidin-7-yl)-3-methylcyclopentane-1,2-diol]
17 | > 9.00 | > 7.70 | > 7.70 |  |  | C[C@]1(CCc2ccc3ccc(N)nc3c2)C[C@@H](c2cnn3c(N)ncnc23)[C@H](O)[C@@H]1O [Compound 56]
18 | < 7.00 | ≤ 6.00 | ≤ 6.00 |  |  | CC(C)C(=O)O[C@H]1[C@H](n2ccc3c(N)ncnc32)[C@H]2C[C@@]2(CCc2ccc3nc(N)ccc3c2)[C@H]1OC(=O)C(C)C [Compound 25-A, (1R,2R,3S,4R,5S)-4-(4-amino-7H-pyrrolo[2,3-d]pyrimidin-7-yl)-1-(2-(2-aminoquinolin-6-yl)ethyl)bicyclo[3.1.0]hexane-2,3-diyl bis(2-methylpropanoate)]
19 | > 9.00 | > 7.70 | > 7.70 |  |  | C[C@]1(CCc2ccc3cc(Cl)c(N)nc3c2)C[C@@H](n2ccc3c(N)ncc(F)c32)[C@H](O)[C@@H]1O [Compound 49]
20 | < 7.00 |  |  | ≤ 6.00 | ≤ 6.00 | CC(C)C(=O)O[C@H]1[C@H](n2ccc3c(N)ncnc32)C[C@](C)(CCc2ccc3nc(N)ccc3c2)[C@H]1OC(=O)C(C)C [Compound 26-A]
21 | > 9.00 | > 7.70 | > 7.70 |  |  | C[C@]1(CCc2ccc3cc(Br)c(N)nc3c2)C[C@@H](n2ccc3c(N)nc(Cl)nc32)[C@H](O)[C@@H]1O [Compound 54]

Row | SMILES | pIC50 [1] | pEC50 ([2]; Homo sapiens, 168 h) | pEC50 ([3]; Homo sapiens, A549, 168 h) | pEC50 [2] | pEC50 [3]
22 | C[C@]1(CCc2cc(F)c3cc(Cl)c(N)nc3c2)C[C@@H](n2ccc3c(N)nc(Cl)nc32)[C@H](O)[C@@H]1O [Compound 53] | > 9.00 |  |  | > 7.70 | > 7.70
